Test system: paternal Ube3a allele in brain
Experiment: Intracerebroventricular delivery, paternal Ube3a in brain
Format: in vivo, mouse
Description: In order to unsilence paternal Ube3a in vivo with an emphasis on brain, I.C.V. with osmotic minipump was performed. […] Paternal Ube3a-YFP mice were anesthetized with Ketamine/Xylazine (120 mg/kg; 9 mg/kg) and positioned in a stereotaxic head frame. The scalp is shaved and cut, and the skull exposed. The local anesthetic (Bupivacaine, 2.5 mg/ml) is applied on the top of skull and mineral oil is applied on the eyes of the mice. Acetone is applied on the skull to remove any lipid tissues on the skull as well as to dry the skull surface for optimal adhesion. Next, a cannula (Brain Infusion Kit 1, DURECT Corporation) is positioned into a lateral ventricle at the following coordinates (−0.3 mm A/P, +/−1.0 mm M/L, −3.0 mm D/V). The free end of the cannula is connected to an Alzet osmotic minipump via a 2.5-cm-long piece of polyethylene (PE) tubing (cat. no. 0007750, DURECT Corporation). […] The filled pumps are incubated in sterile saline at 37° C. for at least 4 to 6 hours for priming before being implanted under the dorsal skin of the mouse's back. A needle driver is used to create a subcutaneous pocket in the scapula region to accommodate filled pumps. The cannula base and the attached piece of PE tubing are fixed to the skull with loctite cyanoacrylic. The incision site is closed with prolene suture. During and after surgery, mice are placed on a heating pad. Body weight of mice is recorded daily to assess mouse health. Seven days following minipump implantation, mice are sacrificed following pentobarbital overdose (150 mg/kg, I.P.) and brains are removed for immunofluorescence staining or Western blot analysis.
For immunocytochemistry in brain tissues, mice were perfused with 4% PFA in 0.1M PBS, postfixed overnight, and cryoprotected with 20% sucrose in 0.1M phosphate buffer (PB), pH=7.4 for two days. 60 μm sections were collected and permeabilized with 0.3% Triton X-100 in 0.1M PB for 30 min, and blocked by 5% goat serum for 1 hr. Sections were incubated with rabbit polyclonal antibody to GFP (1:1000, Novus Biologicals, NB600-308) at 4° C. overnight and then incubated with Alexa Fluor 488 goat antibody to rabbit IgG and DAPI for 2 hr at room temperature. Images were acquired using a Zeiss LSM 510 and 710 confocal microscopes.
For optical intensity measurement in selected brain regions, sections were imaged using a Zeiss LSM 510 confocal microscope. With custom macros created using ImageJ software^34, optical intensity of UBE3A-YFP was measured in different regions of hippocampus and striatum from vehicle- and topotecan-treated mice. Image intensity levels were normalized to background intensities from appropriate regions in vehicle-treated mice. Brain sections between Bregma −1.22 mm and −2.06 mm were chosen for analysis (n=5 sections/mouse for hippocampus and n=3 to 5 sections/mouse for striatum).
Mice with paternal Ube3a-YFP (Ube3a^m+/pYFP) were anesthetized with ketamine/xylazine (120 mg/kg; 9 mg/kg) and positioned in a stereotaxic apparatus. The scalp was shaved and cut, and the skull exposed. The local anesthetic (bupivacaine, 2.5 mg/ml) was applied to the skull, and mineral oil was applied to protect the eyes of the mice. Acetone was applied on the skull to remove any lipid tissues on the skull as well as to dry the skull surface for optimal adhesion. Next, a cannula (Brain Infusion Kit 1, DURECT Corporation) was positioned into a lateral ventricle at the following coordinates (−0.3 mm A/P, +1.0 mm M/L, −2.5 mm DN), as described^40. The free end of the cannula was connected to a mini-osmotic pump (Alzet, Model 2001 or 2002) via a 2.5 cm piece of polyethylene (PE) tubing (DURECT Corporation). […] The filled pumps were incubated in sterile saline at 37° C. for at least 4 hr before being implanted under the dorsal skin of the mouse's back. The cannula base and the attached piece of PE tubing were fixed to the skull with Loctite cyanoacrylic 454. The incision site was closed with prolene suture. […]

CCc1c2c(nc3ccc(OC(=O)N4CCC(N5CCCCC5)CC4)cc13)-c1cc3c(c(=O)n1C2)COC(=O)[C@]3(O)CC [Irinotecan]
Ube3a levels in Angelman syndrome model mice (i.c.v.): significantly increased Ube3a levels

CC[C@@]1(O)C(=O)OCc2c1cc1n(c2=O)Cc2cc3c(CN(C)C)c(O)ccc3nc2-1 [Topotecan]
mice with robust unsilencing in cerebral cortex near the infused ventricle (i.c.v. 3.74 μg/h for two weeks): two of five mice
unsilencing of paternal Ube3a, cerebellum (i.c.v. 3.74 μg/h for two weeks): no effect in the cerebellum
unsilencing of paternal Ube3a, contralateral (non-infused) hemisphere (i.c.v. 3.74 μg/h for two weeks): only a modest effect
unsilencing of paternal Ube3a, infused hemisphere (i.c.v. 3.74 μg/h for two weeks, mini-osmotic pump): unsilenced paternal Ube3a in the hippocampus, striatum, and cerebral cortex of the infused hemisphere
unsilencing of paternal Ube3a, cerebellar Purkinje neurons (i.c.v. 21.6 μg/h for five days): did unsilence the paternal allele of Ube3a in Purkinje neurons of the cerebellum
paternal Ube3a-YFP protein in brain after ICV infusion (Example 3) (i.c.v. osmotic minipump, one week): increased paternal Ube3a-YFP protein levels throughout the brain

From patent US10301630B2, “Methods and compositions for unsilencing imprinted genes” (The University of North Carolina at Chapel Hill, priority 2010, dated 2019)
